Experimental data published in ChEMBL document CHEMBL4627353, “Synthesis of novel dual target inhibitors of PARP and HSP90 and their antitumor activities” (Bioorg Med Chem, 2020).
Active and inactive are the calls of the source. The calls are words filed in the database; no cut-off is given here.

What was measured:
MX1 = assay: Antiproliferative activity against BRCA1-deficient human MX1 cells after 48 hrs by MTT assay; type: functional, cell-based; conditions: MX1, 48 h
HCC1937 [1] = assay: Antiproliferative activity against BRCA1-deficient human HCC1937 cells after 48 hrs by MTT assay; type: functional, cell-based; conditions: HCC1937, 48 h
CAPAN-1 = assay: Antiproliferative activity against BRCA2-deficient human Capan1 cells after 48 hrs by MTT assay; type: functional, cell-based; conditions: CAPAN-1, 48 h
MCF7 [2] = assay: Antiproliferative activity against BRCA-proficient human MCF7 cells after 48 hrs by MTT assay; type: functional, cell-based; conditions: MCF7, 48 h
SK-BR-3 = assay: Antiproliferative activity against BRCA-proficient human SKBR3 cells after 48 hrs by MTT assay; type: functional, cell-based; conditions: SK-BR-3, 48 h
MDA-MB-231 = assay: Antiproliferative activity against BRCA-proficient human MDA-MB-231 cells after 48 hrs by MTT assay; type: functional, cell-based; conditions: MDA-MB-231, 48 h
MCF7 [3] = assay: Inhibition of PARP in human MCF7 cells assessed as down regulation of PAR at 1 to 100 uM in presence of adriamycin by western blotting analysis; type: cell-based
HCC1937 [4] = assay: Potency index, ratio of compound IC50 to Olaparib IC50 for antiproliferative activity against human HCC1937 cells; type: functional
Heat shock protein HSP90 [5] = molecular target: T1, Heat shock protein HSP90 (Homo sapiens, UniProt P07900+P08238); assay: Binding affinity to HSP90 (unknown origin) by fluorescence quenching method; type: protein assay
Heat shock protein HSP90 [6] = molecular target: T1, Heat shock protein HSP90
Description: Binding affinity to HSP90 (unknown origin) by Line weaver-Burk plot analysis

Heat shock protein HSP90 [7] = molecular target: T1, Heat shock protein HSP90; remark: listed apart in the source
Description: Binding affinity to HSP90 (unknown origin) assessed as Stern-Volmer quenching constant by Stern-Volmer plot analysis

Heat shock protein HSP90 [8] = molecular target: T1, Heat shock protein HSP90; remark: listed apart in the source
Description: Binding affinity to HSP90 (unknown origin) assessed as quenching constant by Stern-Volmer plot analysis

MCF7 [9] = assay: Potency index, ratio of compound IC50 to Olaparib IC50 for antiproliferative activity against human MCF7 cells; type: functional
Heat shock protein HSP90 [10] = molecular target: T1, Heat shock protein HSP90; assay: Inhibition of HSP90 in human MDA-MB-231 cells assessed as down regulation of BRCA1 protein expression at 1 to 100 uM in presence of adriamycin by western blotting analysis; type: cell-based
Heat shock protein HSP90 [11] = molecular target: T1, Heat shock protein HSP90; assay: Inhibition of HSP90 (unknown origin) by fluorescence quenching method; type: protein assay

Structure (SMILES) | IC50 (MX1) | IC50 (HCC1937 [1]) | IC50 (CAPAN-1) | IC50 (MCF7 [2]) | IC50 (SK-BR-3) | IC50 (MDA-MB-231) | inhibition (MCF7 [3]) | Ratio IC50 (HCC1937 [4]) | Kd (Heat shock protein HSP90 [5]) | Ka (Heat shock protein HSP90 [6]) | KSV (Heat shock protein HSP90 [7]) | Kq (Heat shock protein HSP90 [8]) | Ratio IC50 (MCF7 [9]) | inhibition (Heat shock protein HSP90 [10]) | IC50 (Heat shock protein HSP90 [11])
O=C1/C(=C/c2cccnc2)CN(C(=O)c2cc(Cc3n[nH]c(=O)c4ccccc34)ccc2F)C/C1=C\c1cccnc1 | 2 µM | 5.3 µM | 82.8 µM | > 200 µM | 15.9 µM | 7.6 µM | Active | 40 | 28.257 µM | 4.89 ×10⁵ L/mol | 3.58 ×10⁴ L/mol | 4.43 ×10¹² L/mol/s |  |  | 
COc1cc(/C=C2\CN(C(=O)c3cc(Cc4n[nH]c(=O)c5ccccc45)ccc3F)C/C(=C\c3cc(OC)c(OC)c(OC)c3)C2=O)cc(OC)c1OC | 34.6 µM | 65.3 µM | 118 µM | > 200 µM | > 200 µM | > 200 µM |  |  |  |  |  |  |  |  | 
O=C1/C(=C/c2ccncc2)CN(C(=O)c2cc(Cc3n[nH]c(=O)c4ccccc34)ccc2F)C/C1=C\c1ccncc1 | 0.1 µM | 2.72 µM | 0.202 µM | 0.97 µM | 2.53 µM | 4.38 µM | Active |  | 39.975 µM |  |  |  | 200 | Active | 0.97 µM
O=C1/C(=C/c2ccc(Cl)cc2)CN(C(=O)c2cc(Cc3n[nH]c(=O)c4ccccc34)ccc2F)C/C1=C\c1ccc(Cl)cc1 | 4.23 µM | 3.84 µM | 1.78 µM | 1.21 µM | > 200 µM | 8 µM |  |  |  |  |  |  |  |  | 
O=C1/C(=C/c2ccccc2F)CN(C(=O)c2cc(Cc3n[nH]c(=O)c4ccccc34)ccc2F)C/C1=C\c1ccccc1F | 3.62 µM | 16.1 µM | 2.02 µM | 2.05 µM | > 200 µM | 7.63 µM |  |  |  |  |  |  |  |  | 
O=C1/C(=C/c2ccc(F)cc2)CN(C(=O)c2cc(Cc3n[nH]c(=O)c4ccccc34)ccc2F)C/C1=C\c1ccc(F)cc1 | > 200 µM | 36.1 µM | > 200 µM | 173 µM | > 200 µM | > 200 µM |  |  |  |  |  |  |  |  | 
O=C1CCN(C(=O)c2cc(Cc3n[nH]c(=O)c4ccccc34)ccc2F)CC1 | > 200 µM | > 200 µM | > 200 µM | > 200 µM | > 200 µM | > 200 µM |  |  |  |  |  |  |  |  | 
O=C1/C(=C/c2ccccc2O)CN(C(=O)c2cc(Cc3n[nH]c(=O)c4ccccc34)ccc2F)C/C1=C\c1ccccc1O | 29.2 µM | > 200 µM | > 200 µM | > 200 µM | > 200 µM | > 200 µM |  |  |  |  |  |  |  |  | 
O=C1/C(=C/c2ccccn2)CN(C(=O)c2cc(Cc3n[nH]c(=O)c4ccccc34)ccc2F)C/C1=C\c1ccccn1 | 0.1 µM | 2.88 µM | 37.3 µM | 1.47 µM | 2.83 µM | 0.75 µM | Active |  | 29.569 µM | 4.88 ×10⁵ L/mol | 3.48 ×10⁴ L/mol | 4.32 ×10¹² L/mol/s | 200 |  | 
O=C1/C(=C/c2ccc3c(c2)OCO3)CN(C(=O)c2cc(Cc3n[nH]c(=O)c4ccccc34)ccc2F)C/C1=C\c1ccc2c(c1)OCO2 | 13.9 µM | 44.7 µM | 32 µM | 25.8 µM | > 200 µM | 21.1 µM |  |  |  |  |  |  |  |  | 
O=C(c1cc(Cc2n[nH]c(=O)c3ccccc23)ccc1F)N1CCN(C(=O)C2CC2)CC1 [OLAPARIB] | 35.8 µM | > 200 µM | 83.1 µM | > 200 µM | 232 µM | > 200 µM |  |  |  |  |  |  |  |  | 
O=C1/C(=C/c2cccc(F)c2)CN(C(=O)c2cc(Cc3n[nH]c(=O)c4ccccc34)ccc2F)C/C1=C\c1cccc(F)c1 | 2.39 µM | 10.6 µM | 1.68 µM | 1.46 µM | > 200 µM | 5.17 µM |  |  |  |  |  |  |  |  | 
